Assay results as given in patent US20040138311A1, “Medicament containing an effector of the glutathione metabolism together with $g(a)-lipoic acid for treating diabetes mellitus” (priority 2001, published 2004).
Counter-ions that a name gives are not always drawn.

Legend:
Assay type in all cases: cell-based, human
peritoneal macrophages [1] = experiment: Phagocytosis capacity of peritoneal macrophages (cytofluorimetric test with opsonized fluorochrome-marked bacteria); conditions: treatment time of 6 days
Procedure: Peritoneal macrophages were isolated using a method analogous to the method described in Example 3 and cultivated ex vivo. The phagocytosis capacity was determined by a cytofluorimetric test on the single-cell level. The macrophages were thereby co-cultivated with opsonized and fluorochrome-marked bacteria. The number of bacteria absorbed during a defined period was determined quantitatively by means of the fluorescence intensity in the macrophages and was used as a measurement for their phagocytosis capacity. The influence of the combinations used according to the invention on the phagocytosis capacity of the peritoneal macrophages after a treatment time of 6 days is presented in the following table.

peritoneal macrophages [2] = experiment: Degree of differentiation and activation of peritoneal macrophages (CD15, CD11c, CD69, CD71 cytofluorimetry); conditions: Control = 1.0; after 6 days of incubation; α-lipoic acid 50 μM, ambroxol 10 μM, enalapril 5 μM, captopril 10 μM
Procedure: Peritoneal macrophages were isolated from patients during renal replacement therapy using the method described in Example 3 and cultivated in the presence of the combinations of α-lipoic acid and effectors of the glutathione metabolism according to the invention. After 6 days of incubation, the degree of differentiation of the peritoneal macrophages was determined by means of the expression of the cell surface antigens CD15 and CD11c, and the degree of cellular activation was determined using cytofluorimetry by means of the co-expression of the activation antigens CD69 to CD15-positive cells and CD71 to […] cells.

T-lymphocytes = experiment: Activation markers CD69, CD25, CD71 of PHA-stimulated T-lymphocytes (activation index); conditions: thiol-deficient cells, 1.0 μg/ml phytohemagglutinin, culture time 72 hours; normal = 1.0
Procedure: In the cultivation experiment described with reference to Example 1, human T-lymphocytes were stimulated with 1.0 μg/ml phytohemagglutinin. In a culture time of 72 hours, specific markers of the cellular activation were quantitatively detected using cytofluorimetery by means of monoclonal antibodies. The influence of the combinations used according to the invention on the activation markers CD69 (early activation antigen), CD25 (intermediate activation antigen) and CD71 (late activation antigen) of T-lymphocytes was measured. […] It can thus be concluded that the normalization of the cellular thiol status achieved by the combined use of α-lipoic acid and the respective effectors of the glutathione metabolism is accompanied by a restitution of cell function.

peritoneal macrophages [3] = experiment: Degree of differentiation and activation of peritoneal macrophages (CD15, CD11c, CD69, CD71 cytofluorimetry); conditions: Control = 1.0; after 6 days of incubation; α-lipoic acid 50 μM, ambroxol 10 μM, enalapril 5 μM, captopril 10 μM; remark: listed apart in the source
peritoneal macrophages [4] = experiment: Intracellular thiol expression of peritoneal macrophages from peritoneal dialysis patients; conditions: time kinetic over 14 days
Procedure: Peritoneal macrophages were isolated from the effluate of peritoneal dialysis of patients with a high degree of renal insufficiency, absorbed in a cell culture medium and incubated in a gasifying incubation cabinet at 37° C., a relative humidity of 98% and 7.5% relative air-CO2 content. To investigate the influence of the combinations used according to the invention on the thiol status of the peritoneal macrophages, individual fractions were treated with α-lipoic acid, the effectors of the glutathione metabolism ambroxol or the ACE inhibitor enalapril and with the combination of α-lipoic acid/ambroxol or α-lipoic acid/enalapril, while an additional fraction was maintained as an untreated control. The cellular thiol status was determined using the measurement methods described in Example 1. FIG. 4 illustrates the effect of the combination of α-lipoic acid and ambroxol (FIG. 4a) and α-lipoic acid and enalapril (FIG. 4b) in a time kinetic over 14 days […].

[5] = system: lymphocytes (peripheral immune cells); experiment: Membrane-bound thiol expression of thiol-depleted peripheral immune cells (CMTMR flow cytofluorimetry); conditions: α-lipoic acid 50 μM, captopril 10 μM, combination at the same concentrations
Procedure: Peripheral immune cells from healthy donors (n=9) were isolated from the peripheral blood. The major fraction of the resulting total population of mononuclear cells regularly represents lymphocytes with a relative percentage of approximately 90%, depending on the donor. 10% of the mononuclear cells are represented by monocytes. The mononuclear cells obtained were absorbed in special cell culture media and incubated in a gasifying incubation cabinet at 37° C., a relative humidity of 98% and 5% relative air-CO2 content. […] To test the influence of the combinations used according to the invention on the thiol status of thiol-deficient immune cells, these cells were artificially thiol-depleted. This process was carried out using proven methods by cultivation in thiol-deficient media (RPMI 1603). Comparative cultures using complete media (RPMI) 1640) were used to define the best possible normal value under the culture conditions. The expression of membrane-bound thiol groups was also determined using flow cytofluorimetry. In this case, chloromethyltetramethyl rhodamine (CMTMR) was used as thiol conjugate under the conditions of a blocked membrane potential and an inhibited diffusion capacity of the cells. The fluorescence intensity of the fluorochrome molecules bound to the cell membrane is in turn proportional to the number of thiol groups on the cell surface. The results obtained with this experimental investigation of the influence of the combinations according to the invention on the expression of cell membrane bound thiols are presented in FIG. 2 for the combinations of α-lipoic acid and ambroxol (FIG. 2a) and α-lipoic acid and enalapril (FIG. 2b). The following table presents the results for the combination of α-lipoic acid and captopril.

peritoneal macrophages [6] = experiment: Stability of intracellular thiol restitution in peritoneal macrophages in the dialysis model; conditions: after approximately 4 days in the dialysis model
Procedure: (§1) The combinations of thiol-restored peritoneal macrophages used according to the invention were extracted from this test system after 6 days and cultivated over a period of 14 days in a dialysis model. For this purpose the peritoneal macrophages were adapted to matrices that were coated with collagen IV and placed in contact with conventional high-glucose dialysis solution 3 times a day for 60 minutes each time. In this case, the model was used for the induction of a combined hyperglycemic/osmotic stress. […] The membrane expression of thiol was determined on the basis of the median fluorescence intensity (mfi) of the specimen (3000 cells/measurement) after coupling to a chlormethyl-fuorochrome derivative. […] Here, too, there is a mono-effect of α-lipoic acid, although it lasts only briefly and after approximately 4 days in the dialysis model is only approximately 50% as effective as the combinations.

[7] = system: lymphocytes (peripheral immune cells); experiment: Intracellular thiol expression of thiol-depleted peripheral immune cells (CMFDA flow cytofluorimetry); conditions: thiol-deficient conditions (1603), 10-20% thiol reduction
Procedure: Peripheral immune cells from healthy donors (n=9) were isolated from the peripheral blood. The major fraction of the resulting total population of mononuclear cells regularly represents lymphocytes with a relative percentage of approximately 90%, depending on the donor. 10% of the mononuclear cells are represented by monocytes. The mononuclear cells obtained were absorbed in special cell culture media and incubated in a gasifying incubation cabinet at 37° C., a relative humidity of 98% and 5% relative air-CO2 content. […] To test the influence of the combinations used according to the invention on the thiol status of thiol-deficient immune cells, these cells were artificially thiol-depleted. This process was carried out using proven methods by cultivation in thiol-deficient media (RPMI 1603). Comparative cultures using complete media (RPMI) 1640) were used to define the best possible normal value under the culture conditions. […] Primarily non-fluorogenic CMFDA is thereby passively absorbed by the cell. By means of the chlormethyl group, there is a bonding to cytoplasmic thiol groups. […] The median fluorescence intensity of the specimen (10,000 cells) is directly proportional to the concentration of the intracellular thiol groups. […] The data are presented as the ratio of the cellular fluorescence intensity to the respective calibration particles (beads) that were analyzed simultaneously. […]

peritoneal macrophages [8] = experiment: Stability of membrane-bound thiol expression in peritoneal macrophages in the dialysis model; conditions: 14 days, high-glucose dialysis solution
Procedure: as §1, with “combinations. A similar result is apparent in the curves of the membrane-bound thiol expression illustrated in FIG. 7.” for “combinations.”

peritoneal macrophages [9] = experiment: Membrane thiol expression of peritoneal macrophages from peritoneal dialysis patients; conditions: α-lipoic acid effect disappeared after 4 days of treatment
Procedure: Peritoneal macrophages were isolated from the effluate of peritoneal dialysis of patients with a high degree of renal insufficiency, absorbed in a cell culture medium and incubated in a gasifying incubation cabinet at 37° C., a relative humidity of 98% and 7.5% relative air-CO2 content. To investigate the influence of the combinations used according to the invention on the thiol status of the peritoneal macrophages, individual fractions were treated with α-lipoic acid, the effectors of the glutathione metabolism ambroxol or the ACE inhibitor enalapril and with the combination of α-lipoic acid/ambroxol or α-lipoic acid/enalapril, while an additional fraction was maintained as an untreated control. The cellular thiol status was determined using the measurement methods described in Example 1. […] The membrane expression of thiols was determined on the basis of the median fluorescence intensity (mfi) of the specimen (3000 cells/measurement) after coupling to a chlormethyl-fluorochrome derivative.

Compound | Phagocytosis rate higher than that of the untreated control by a factor of (peritoneal macrophages [1]) | CD11c expression (peritoneal macrophages [2]) | CD15/69 co-expression (peritoneal macrophages [2]) | CD15 expression (peritoneal macrophages [2]) | Effect on the activation index of T-lymphocytes (CD69, CD25, CD71; in words) (T-lymphocytes) | CD11c/71 co-expression (peritoneal macrophages [3]) | Effect on cellular thiol expression of peritoneal macrophages (in words) (peritoneal macrophages [4]) | Membrane-resistant thiol expression ([5]; length of culture 0 d) [mfiBeads/Ratio] | Membrane-resistant thiol expression ([5]; length of culture 1 d) [mfiBeads/Ratio] | Membrane-resistant thiol expression ([5]; length of culture 2 d) [mfiBeads/Ratio] | Membrane-resistant thiol expression ([5]; length of culture 3 d) [mfiBeads/Ratio] | Membrane-resistant thiol expression ([5]; length of culture 4 d) [mfiBeads/Ratio] | Membrane-resistant thiol expression ([5]; length of culture 6 d) [mfiBeads/Ratio] | Membrane-resistant thiol expression ([5]; length of culture 8 d) [mfiBeads/Ratio] | Membrane-resistant thiol expression ([5]; length of culture 10 d) [mfiBeads/Ratio] | Membrane-resistant thiol expression ([5]; length of culture 12 d) [mfiBeads/Ratio] | Membrane-resistant thiol expression ([5]; length of culture 14 d) [mfiBeads/Ratio] | also measured
CCOC(=O)[C@H](CCc1ccccc1)NC(C)C(=O)N1CCCC1C(=O)O (stereo in doubt) [Enalapril, 1-{N-[(S)-1-ethoxycarbonyl-3-phenylpropyl]-L-alanyl}-L-prolin] | 1.53 | 1.23 ± 0.22 | 1.19 ± 0.12 | 1.21 ± 0.22 | equivalent to α-lipoic acid only in the case of the effectuation of the CD25 antigen | 1.10 ± 0.14 | – | – | – | – | – | – | – | – | – | – | – | –
Nc1c(Br)cc(Br)cc1CNC1CCC(O)CC1 (centres unmarked) [Ambroxol, hydrochloride] | 1.35 | 1.01 ± 0.09 | – | 0.98 ± 0.13 | does not have any influence on one of the three activation markers | 0.96 ± 0.1 | had no effect | – | – | – | – | – | – | – | – | – | – | –
C[C@H](CS)C(=O)N1CCC[C@H]1C(=O)O [Captopril, 1-[(2S)-3-mercapto-2-methylpropionyl]-L-prolin] | – | 1.26 ± 0.24 | 1.69 ± 0.21 | 1.19 ± 0.14 | – | 1.52 ± 0.16 | – | 2.37 ± 0.45 | 2.63 ± 0.39 | 2.54 ± 0.41 | 2.52 ± 0.38 | 2.50 ± 0.41 | 2.46 ± 0.50 | 2.01 ± 0.39 | 1.68 ± 0.29 | 1.02 ± 0.51 | 0.99 ± 0.46 | –
O=C(O)CCCCC1CCSS1 (stereo not drawn) [α-lipoic acid] | 1.85 | 1.21 ± 0.11 | 1.09 ± 0.08 | 1.18 ± 0.16 | slight improvement of the cellular activation | 1.08 ± 0.09 | increase of the cellular thiol expression | 2.37 ± 0.45 | 2.65 ± 0.39 | 2.43 ± 0.52 | 2.31 ± 0.36 | 2.26 ± 0.20 | 2.19 ± 0.13 | 1.93 ± 0.20 | 1.63 ± 0.16 | 1.32 ± 0.21 | 1.34 ± 0.20 | Effectiveness relative to the combinations (peritoneal macrophages [6]): approximately 50%; Effect on the intracellular thiol deficit (in words) [7]: not possible to achieve a complete compensation of the thiol deficit; Membrane-bound thiol expression in the dialysis model (in words) (peritoneal macrophages [8]): intermediary; Effect on membrane-bound thiol expression of peritoneal macrophages (in words) (peritoneal macrophages [9]): very clear effect
